How the values were obtained:
Settings in all cases: 1 µM; inhibitor
[1] = molecular target: TLK2 (Homo sapiens, UniProt Q86UE8)
[2] = molecular target: EIF2AK2 (Homo sapiens, UniProt P19525)
[3] = molecular target: MASTL (Homo sapiens, UniProt Q96GX5)
[4] = molecular target: CDK2/CycD1 (Homo sapiens, UniProt P24941)
[5] = molecular target: NEK4 (Homo sapiens, UniProt P51957)
[6] = molecular target: MKK7 (Homo sapiens, UniProt O14733)
[7] = molecular target: CDK5/p35NCK (Homo sapiens, UniProt Q00535)
[8] = molecular target: CDK19 (Homo sapiens, UniProt Q9BWU1)
[9] = molecular target: STK17A (Homo sapiens, UniProt Q9UEE5)
[10] = molecular target: TYK2 (Homo sapiens, UniProt P29597)
[11] = molecular target: HRI (Homo sapiens, UniProt Q9BQI3)
[12] = molecular target: HIPK2 (Homo sapiens, UniProt Q9H2X6)
[13] = molecular target: ROS (Homo sapiens, UniProt P08922)
[14] = molecular target: FGFR1 (Homo sapiens, UniProt P11362)
[15] = molecular target: TAOK2 (Homo sapiens, UniProt Q9UL54)
[16] = molecular target: NIK (Homo sapiens, UniProt Q99558)
[17] = molecular target: FGFR3 (Homo sapiens, UniProt P22607)
[18] = molecular target: CK2a2 (Homo sapiens, UniProt P19784)
[19] = molecular target: DAPK1 (Homo sapiens, UniProt P53355)
[20] = molecular target: PKCmu (Homo sapiens, UniProt Q15139)
[21] = molecular target: SGK2 (Homo sapiens, UniProt Q9HBY8)
[22] = molecular target: CSK (Homo sapiens, UniProt P41240)
[23] = molecular target: AurB (Homo sapiens, UniProt Q96GD4)
[24] = molecular target: CDK20 (Homo sapiens, UniProt Q8IZL9)
[25] = molecular target: JNK1 (Homo sapiens, UniProt P45983)
[26] = molecular target: MAP4K2 (Homo sapiens, UniProt Q12851)
[27] = molecular target: GRK4 (Homo sapiens, UniProt P32298)
[28] = molecular target: NEK11 (Homo sapiens, UniProt Q8NG66)
[29] = molecular target: IRAK1 (Homo sapiens, UniProt P51617)
[30] = molecular target: SGK1 (Homo sapiens, UniProt O00141)
[31] = molecular target: SYK (Homo sapiens, UniProt P43405)

Sequence of HRI (Q9BQI3 whole entry): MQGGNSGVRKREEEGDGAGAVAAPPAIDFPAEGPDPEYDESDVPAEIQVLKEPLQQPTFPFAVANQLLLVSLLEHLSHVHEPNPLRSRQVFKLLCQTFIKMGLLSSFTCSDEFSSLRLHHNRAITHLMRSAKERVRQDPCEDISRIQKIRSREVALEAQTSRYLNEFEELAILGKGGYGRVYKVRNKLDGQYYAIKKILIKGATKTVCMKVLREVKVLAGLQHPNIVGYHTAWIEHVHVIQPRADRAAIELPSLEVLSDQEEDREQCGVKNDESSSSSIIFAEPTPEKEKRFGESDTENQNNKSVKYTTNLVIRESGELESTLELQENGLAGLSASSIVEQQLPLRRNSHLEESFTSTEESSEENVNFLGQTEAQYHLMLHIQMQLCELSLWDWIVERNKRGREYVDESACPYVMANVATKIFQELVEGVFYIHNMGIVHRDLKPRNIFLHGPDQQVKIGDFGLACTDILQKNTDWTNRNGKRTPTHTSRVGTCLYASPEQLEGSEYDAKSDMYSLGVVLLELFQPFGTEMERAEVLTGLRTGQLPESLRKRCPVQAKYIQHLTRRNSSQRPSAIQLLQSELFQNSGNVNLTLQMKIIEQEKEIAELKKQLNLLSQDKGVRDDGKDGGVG
Sequence of PKCmu (Q15139 whole entry): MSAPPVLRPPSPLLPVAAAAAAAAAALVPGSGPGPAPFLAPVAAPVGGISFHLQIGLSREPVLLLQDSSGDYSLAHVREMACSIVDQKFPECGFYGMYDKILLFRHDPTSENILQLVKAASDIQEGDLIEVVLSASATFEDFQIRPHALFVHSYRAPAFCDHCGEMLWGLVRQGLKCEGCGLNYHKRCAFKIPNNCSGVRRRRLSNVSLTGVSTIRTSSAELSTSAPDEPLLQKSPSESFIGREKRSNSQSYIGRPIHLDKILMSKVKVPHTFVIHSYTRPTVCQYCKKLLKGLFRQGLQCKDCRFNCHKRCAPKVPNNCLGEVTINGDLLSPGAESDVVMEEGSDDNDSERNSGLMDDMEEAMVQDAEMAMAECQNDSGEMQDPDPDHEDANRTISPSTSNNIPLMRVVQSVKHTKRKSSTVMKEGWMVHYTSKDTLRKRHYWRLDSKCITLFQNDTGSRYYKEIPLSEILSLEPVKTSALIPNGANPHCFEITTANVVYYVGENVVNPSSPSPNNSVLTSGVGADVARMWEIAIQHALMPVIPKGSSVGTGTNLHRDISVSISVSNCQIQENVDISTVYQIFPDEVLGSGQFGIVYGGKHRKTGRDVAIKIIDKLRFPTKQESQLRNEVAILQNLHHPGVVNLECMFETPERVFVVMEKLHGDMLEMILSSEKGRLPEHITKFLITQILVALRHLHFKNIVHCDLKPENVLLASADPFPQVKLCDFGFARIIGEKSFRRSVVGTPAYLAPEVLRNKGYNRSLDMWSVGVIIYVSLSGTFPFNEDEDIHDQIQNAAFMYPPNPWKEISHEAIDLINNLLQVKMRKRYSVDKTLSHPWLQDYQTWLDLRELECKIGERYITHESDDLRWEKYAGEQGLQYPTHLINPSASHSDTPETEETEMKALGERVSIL
Sequence of CK2a2 (P19784 whole entry): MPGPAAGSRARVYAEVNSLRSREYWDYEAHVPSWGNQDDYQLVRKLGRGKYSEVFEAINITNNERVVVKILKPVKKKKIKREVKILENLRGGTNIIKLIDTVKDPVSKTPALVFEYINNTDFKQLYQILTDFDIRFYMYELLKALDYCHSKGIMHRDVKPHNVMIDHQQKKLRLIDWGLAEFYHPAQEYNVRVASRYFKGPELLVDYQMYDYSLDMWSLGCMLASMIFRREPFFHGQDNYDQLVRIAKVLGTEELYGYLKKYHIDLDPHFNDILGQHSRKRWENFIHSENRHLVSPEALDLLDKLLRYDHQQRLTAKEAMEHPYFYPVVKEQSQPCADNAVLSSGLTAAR
Sequence of TYK2 (P29597 whole entry): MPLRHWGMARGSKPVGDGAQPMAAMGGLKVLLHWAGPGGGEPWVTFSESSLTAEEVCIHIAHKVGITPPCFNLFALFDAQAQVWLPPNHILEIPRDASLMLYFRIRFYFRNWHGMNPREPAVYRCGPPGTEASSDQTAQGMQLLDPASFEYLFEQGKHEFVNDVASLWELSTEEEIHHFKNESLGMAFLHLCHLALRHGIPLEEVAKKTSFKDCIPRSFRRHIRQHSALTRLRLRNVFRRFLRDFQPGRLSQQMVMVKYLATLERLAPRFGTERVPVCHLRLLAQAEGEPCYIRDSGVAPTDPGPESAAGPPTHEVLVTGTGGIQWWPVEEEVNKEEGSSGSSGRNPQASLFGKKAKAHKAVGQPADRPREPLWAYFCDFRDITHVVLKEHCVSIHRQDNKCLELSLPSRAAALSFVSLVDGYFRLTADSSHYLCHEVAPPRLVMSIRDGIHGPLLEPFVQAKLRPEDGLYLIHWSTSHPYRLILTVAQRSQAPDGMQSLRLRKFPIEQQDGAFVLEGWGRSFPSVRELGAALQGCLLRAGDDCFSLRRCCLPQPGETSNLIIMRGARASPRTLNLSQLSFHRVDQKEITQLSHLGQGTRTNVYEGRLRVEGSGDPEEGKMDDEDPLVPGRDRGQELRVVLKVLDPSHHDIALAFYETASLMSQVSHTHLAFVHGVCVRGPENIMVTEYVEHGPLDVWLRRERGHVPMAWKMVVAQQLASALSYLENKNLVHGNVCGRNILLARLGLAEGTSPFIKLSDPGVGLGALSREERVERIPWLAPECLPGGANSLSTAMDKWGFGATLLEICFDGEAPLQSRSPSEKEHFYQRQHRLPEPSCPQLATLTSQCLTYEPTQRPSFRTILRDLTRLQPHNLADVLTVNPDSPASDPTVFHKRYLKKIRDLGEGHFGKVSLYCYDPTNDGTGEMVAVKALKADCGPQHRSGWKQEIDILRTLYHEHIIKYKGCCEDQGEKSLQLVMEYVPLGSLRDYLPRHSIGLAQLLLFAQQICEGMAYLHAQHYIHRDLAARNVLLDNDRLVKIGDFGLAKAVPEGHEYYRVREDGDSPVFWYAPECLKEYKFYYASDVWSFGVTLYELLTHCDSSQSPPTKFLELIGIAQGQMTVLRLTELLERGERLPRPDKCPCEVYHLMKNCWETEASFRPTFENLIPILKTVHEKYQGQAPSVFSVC
Sequence of SGK2 (Q9HBY8 whole entry): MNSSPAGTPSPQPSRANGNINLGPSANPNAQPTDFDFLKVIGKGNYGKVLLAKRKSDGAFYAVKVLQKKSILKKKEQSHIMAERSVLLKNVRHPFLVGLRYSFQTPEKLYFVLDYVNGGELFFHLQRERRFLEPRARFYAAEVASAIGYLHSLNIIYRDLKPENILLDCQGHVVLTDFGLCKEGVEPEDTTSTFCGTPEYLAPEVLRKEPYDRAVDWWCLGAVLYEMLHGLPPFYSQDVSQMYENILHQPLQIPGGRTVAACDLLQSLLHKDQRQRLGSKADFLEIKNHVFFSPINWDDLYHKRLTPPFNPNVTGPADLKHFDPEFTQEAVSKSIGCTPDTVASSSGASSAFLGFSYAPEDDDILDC
Sequence of NEK4 (P51957 whole entry): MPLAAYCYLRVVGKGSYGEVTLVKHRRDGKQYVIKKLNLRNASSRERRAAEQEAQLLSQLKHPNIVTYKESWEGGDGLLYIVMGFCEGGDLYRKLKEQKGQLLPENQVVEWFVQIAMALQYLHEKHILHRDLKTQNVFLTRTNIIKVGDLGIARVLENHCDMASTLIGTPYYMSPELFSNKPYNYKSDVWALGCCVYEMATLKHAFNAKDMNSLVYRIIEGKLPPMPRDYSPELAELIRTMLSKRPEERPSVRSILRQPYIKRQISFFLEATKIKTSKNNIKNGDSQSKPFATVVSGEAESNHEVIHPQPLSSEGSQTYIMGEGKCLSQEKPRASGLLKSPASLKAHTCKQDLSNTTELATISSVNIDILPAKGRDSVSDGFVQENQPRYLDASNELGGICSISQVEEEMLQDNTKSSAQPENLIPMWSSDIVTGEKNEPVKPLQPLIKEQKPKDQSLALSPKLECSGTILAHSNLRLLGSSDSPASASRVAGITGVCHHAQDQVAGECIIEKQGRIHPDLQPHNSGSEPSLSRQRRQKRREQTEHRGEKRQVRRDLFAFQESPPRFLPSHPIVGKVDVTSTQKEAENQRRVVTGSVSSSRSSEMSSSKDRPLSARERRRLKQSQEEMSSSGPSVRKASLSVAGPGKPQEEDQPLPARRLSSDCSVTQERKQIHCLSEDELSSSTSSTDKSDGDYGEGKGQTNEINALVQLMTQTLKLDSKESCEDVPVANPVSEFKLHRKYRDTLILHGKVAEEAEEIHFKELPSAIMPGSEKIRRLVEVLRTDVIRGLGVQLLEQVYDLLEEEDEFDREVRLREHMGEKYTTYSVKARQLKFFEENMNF
Sequence of CDK19 (Q9BWU1 whole entry): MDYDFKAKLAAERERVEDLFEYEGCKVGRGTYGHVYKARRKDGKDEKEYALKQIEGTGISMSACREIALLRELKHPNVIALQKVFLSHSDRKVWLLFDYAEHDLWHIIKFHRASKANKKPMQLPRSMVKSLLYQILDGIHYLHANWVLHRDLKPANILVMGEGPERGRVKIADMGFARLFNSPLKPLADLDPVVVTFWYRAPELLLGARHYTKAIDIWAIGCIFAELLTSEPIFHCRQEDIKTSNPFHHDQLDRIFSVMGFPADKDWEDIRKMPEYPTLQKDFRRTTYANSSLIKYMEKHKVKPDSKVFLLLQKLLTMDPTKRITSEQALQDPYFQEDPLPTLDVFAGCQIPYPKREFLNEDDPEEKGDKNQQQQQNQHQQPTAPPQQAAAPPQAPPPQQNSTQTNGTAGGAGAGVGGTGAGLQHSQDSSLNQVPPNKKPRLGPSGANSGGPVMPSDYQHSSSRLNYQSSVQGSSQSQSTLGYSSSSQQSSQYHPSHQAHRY

`O=C1NCCCCCNc2nc(c3ccccc3n2)Nc2cc1[nH]n2` [21c, (Z)-3^1H-2,5,11-triaza-1(4,2)-quinazolina-3(3,5)-pyrazolacycloundecaphan-4-one] was tested, and the “21c Remaining activity, percent of control [%]” value [1] was 95.4%, the “21c Remaining activity, percent of control [%]” value [2] was 75.1% and the “21c Remaining activity, percent of control [%]” value [3] was 118.0%. The “21c Remaining activity, percent of control [%]” value [4] was 121.3%, the “21c Remaining activity, percent of control [%]” value [5] was 103.8% and the “21c Remaining activity, percent of control [%]” value [6] was 100.3%. The “21c Remaining activity, percent of control [%]” value [7] was 96.6%, the “21c Remaining activity, percent of control [%]” value [8] was 92.8% and the “21c Remaining activity, percent of control [%]” value [9] was 103.5%. For the same compound, the “21c Remaining activity, percent of control [%]” value [10] was 116.8%, the “21c Remaining activity, percent of control [%]” value [11] was 98.2% and the “21c Remaining activity, percent of control [%]” value [12] was 74.8%. The “21c Remaining activity, percent of control [%]” value [13] was 109.6%, the “21c Remaining activity, percent of control [%]” value [14] was 80.9% and the “21c Remaining activity, percent of control [%]” value [15] was 93.6%. For the same compound, the “21c Remaining activity, percent of control [%]” value [16] was 68.5%, the “21c Remaining activity, percent of control [%]” value [17] was 99.8% and the “21c Remaining activity, percent of control [%]” value [18] was 85.6%. The “21c Remaining activity, percent of control [%]” value [19] was 94.0%, the “21c Remaining activity, percent of control [%]” value [20] was 96.1% and the “21c Remaining activity, percent of control [%]” value [21] was 105.5%. The “21c Remaining activity, percent of control [%]” value [22] was 73.5%, the “21c Remaining activity, percent of control [%]” value [23] was 83.9% and the “21c Remaining activity, percent of control [%]” value [24] was 84.4%. For the same compound, the “21c Remaining activity, percent of control [%]” value [25] was 95.6%, the “21c Remaining activity, percent of control [%]” value [26] was 112.8% and the “21c Remaining activity, percent of control [%]” value [27] was 112.1%. For the same compound, the “21c Remaining activity, percent of control [%]” value [28] was 93.3%, the “21c Remaining activity, percent of control [%]” value [29] was 101.8% and the “21c Remaining activity, percent of control [%]” value [30] was 90.0%. The “21c Remaining activity, percent of control [%]” value [31] was 99.7%.

From doi:10.1101/2023.10.20.563248v1 (biorxiv, 2023)
